Data: patent publication US12448388B2, “PRMT5 inhibitors and uses thereof” (Gilead Sciences, Inc., priority 2023, dated 2025)

These molecules were tested on HCT116 MTAP-deleted cell lines (assay: Cell viability assay (CellTiter-Glo, 7 days), HCT116 MTAP-deleted). Settings: Homo sapiens, HCT-116; cell viability, HCT116 MTAP-deleted; class symbols; read-out: CC50.
Assay type: cell-based
In short: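 Read-out was CellTiter-Glo luminescence after a 7-day incubation (37 °C, 5% CO2) of HCT116 cells, MTAP-deleted or WT, on dose-response compound plates. CC50 values come from each line; where marked *, selectivity is overstated because poor solubility impaired the WT CC50 measurement.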

`CN(C(=O)c1cc2c(cc1F)nc(N)c1cncn12)C1COCc2nc(Br)ccc21` (centres unmarked) [Ff-275, 4-amino-N-(2-bromo-5,8-dihydro-6H-pyrano[3,4-b]pyridin-5-yl)-7-fluoro-N-methylimidazo[1,5-a]quinoxaline-8-carboxamide] and `CN(C(=O)c1cc2c(cc1F)nc(N)c1cncn12)[C@@H]1COCc2nc(C(F)(F)F)ccc21` [Ff-281, (S)-4-amino-7-fluoro-N-methyl-N-(2-(trifluoromethyl)-5,8-dihydro-6H-pyrano[3,4-b]pyridin-5-yl)imidazo[1,5-a]quinoxaline-8-carboxamide] cannot be ordered by CC50: < 100 nM for the first, < 100 nM for the second.

`Nc1nc2cc(F)c(C(=O)N(Cc3ccc(C(F)(F)F)cc3F)c3cnn(C4CC4)c3)cc2n2cncc12` [Ff-276, 4-amino-N-(1-cyclopropyl-1H-pyrazol-4-yl)-7-fluoro-N-(2-fluoro-4-(trifluoromethyl)benzyl)imidazo[1,5-a]quinoxaline-8-carboxamide] and `Nc1nc2cc(F)c(C(=O)N(Cc3ccc(C(F)(F)F)cc3F)c3cnn(C(F)F)c3)cc2n2cncc12` [Ff-291, 4-amino-N-(1-(difluoromethyl)-1H-pyrazol-4-yl)-7-fluoro-N-(2-fluoro-4-(trifluoromethyl)benzyl)imidazo[1,5-a]quinoxaline-8-carboxamide] cannot be ordered by CC50: < 100 nM for the first, < 100 nM for the second.

`Nc1nc2cc(F)c(C(=O)N(Cc3ccc(C(F)(F)F)cn3)c3ccccc3)cc2n2cncc12` [Ff-277, 4-amino-7-fluoro-N-phenyl-N-((5-(trifluoromethyl)pyridin-2-yl)methyl)imidazo[1,5-a]quinoxaline-8-carboxamide] and `Nc1nc2cc(F)c(C(=O)N(Cc3ccc(C(F)(F)F)cn3)c3cnn(-c4ccccc4)c3)cc2n2cncc12` [Ff-315, 4-amino-7-fluoro-N-(1-phenyl-1H-pyrazol-4-yl)-N-((5-(trifluoromethyl)pyridin-2-yl)methyl)imidazo[1,5-a]quinoxaline-8-carboxamide] cannot be ordered by CC50: < 100 nM for the first, < 100 nM for the second.

Compared with `CN(C(=O)c1cc2c(cc1F)nc(N)c1cncn12)[C@H]1COCc2nc(C(F)(F)F)ccc21` [Ff-282, (R)-4-amino-7-fluoro-N-methyl-N-(2-(trifluoromethyl)-5,8-dihydro-6H-pyrano[3,4-b]pyridin-5-yl)imidazo[1,5-a]quinoxaline-8-carboxamide], `CN(C(=O)c1cc2c(cc1Cl)nc(N)c1cncn12)[C@@H]1COCc2nc(C(F)(F)F)ccc21` [Ff-308, (S)-4-amino-7-chloro-N-methyl-N-(2-(trifluoromethyl)-5,8-dihydro-6H-pyrano[3,4-b]pyridin-5-yl)imidazo[1,5-a]quinoxaline-8-carboxamide] is lower in CC50: 100 to 1000 nM for the first, < 100 nM for the second.

`Nc1nc2cc(F)c(C(=O)N(Cc3ccc(C(F)(F)F)cc3F)c3cnn4c3CCC4)cc2n2cncc12` [Ff-285, 4-amino-N-(5,6-dihydro-4H-pyrrolo[1,2-b]pyrazol-3-yl)-7-fluoro-N-(2-fluoro-4-(trifluoromethyl)benzyl)imidazo[1,5-a]quinoxaline-8-carboxamide] and `Cn1ccc(N(Cc2ccc(C(F)(F)F)cc2F)C(=O)c2cc3c(cc2F)nc(N)c2cncn23)n1` [Ff-286, 4-amino-7-fluoro-N-(2-fluoro-4-(trifluoromethyl)benzyl)-N-(1-methyl-1H-pyrazol-3-yl)imidazo[1,5-a]quinoxaline-8-carboxamide] cannot be ordered by CC50: < 100 nM for the first, < 100 nM for the second.

`Cn1cc(N(Cc2ncc(C(F)(F)F)cc2F)C(=O)c2cc3c(cc2F)nc(N)c2cncn23)cn1` [Ff-290, 4-amino-7-fluoro-N-((3-fluoro-5-(trifluoromethyl)pyridin-2-yl)methyl)-N-(1-methyl-1H-pyrazol-4-yl)imidazo[1,5-a]quinoxaline-8-carboxamide] and `Cn1ccc(N(Cc2ncc(C(F)(F)F)cc2F)C(=O)c2cc3c(cc2F)nc(N)c2cncn23)n1` [Ff-307, 4-amino-7-fluoro-N-((3-fluoro-5-(trifluoromethyl)pyridin-2-yl)methyl)-N-(1-methyl-1H-pyrazol-3-yl)imidazo[1,5-a]quinoxaline-8-carboxamide] cannot be ordered by CC50: < 100 nM for the first, < 100 nM for the second.

`CN(C(=O)c1cc2c(cc1F)nc(N)c1cncn12)[C@@H]1COCc2cc(-c3cnn(C(F)F)c3)ccc21` [Ff-292, (S)-4-amino-7-fluoro-N-methyl-N-(7-(1-(difluoromethyl)-1H-pyrazol-4-yl)isochroman-4-yl)imidazo[1,5-a]quinoxaline-8-carboxamide] and `CN(C(=O)c1cc2c(cc1F)nc(N)c1cncn12)[C@@H]1COc2cc(C(C)(F)F)ccc21` [Ff-337, (S)-4-amino-N-(6-(1,1-difluoroethyl)-2,3-dihydrobenzofuran-3-yl)-7-fluoro-N-methylimidazo[1,5-a]quinoxaline-8-carboxamide] cannot be ordered by CC50: < 100 nM for the first, < 100 nM for the second.

`CN(C(=O)c1ccc2nc(N)c3cncn3c2c1)[C@@H]1COCc2nc(C(F)(F)F)ccc21` [Ff-302, (S)-4-amino-N-methyl-N-(2-(trifluoromethyl)-5,8-dihydro-6H-pyrano[3,4-b]pyridin-5-yl)imidazo[1,5-a]quinoxaline-8-carboxamide] and `CN(C(=O)c1cc2c(cc1F)nc(N)c1cncn12)[C@@H]1CCc2nc(C(F)(F)F)ccc21` [Ff-318, (R)-4-amino-7-fluoro-N-methyl-N-(2-(trifluoromethyl)-6,7-dihydro-5H-cyclopenta[b]pyridin-5-yl)imidazo[1,5-a]quinoxaline-8-carboxamide] cannot be ordered by CC50: < 100 nM for the first, < 100 nM for the second.

`Cc1ncn2c1c(N)nc1cc(F)c(C(=O)N(C)[C@@H]3COCc4nc(C(F)(F)F)ccc43)cc12` [Ff-303, (S)-4-amino-7-fluoro-N,3-dimethyl-N-(2-(trifluoromethyl)-5,8-dihydro-6H-pyrano[3,4-b]pyridin-5-yl)imidazo[1,5-a]quinoxaline-8-carboxamide] and `Cc1ncn2c1c(N)nc1cc(F)c(C(=O)N(C)[C@@H]3CCc4nc(C(F)(F)F)ccc43)cc12` [Ff-316, (R)-4-amino-7-fluoro-N,3-dimethyl-N-(2-(trifluoromethyl)-6,7-dihydro-5H-cyclopenta[b]pyridin-5-yl)imidazo[1,5-a]quinoxaline-8-carboxamide] cannot be ordered by CC50: < 100 nM for the first, < 100 nM for the second.

`Cc1ncn2c1c(N)nc1cc(F)c(C(=O)N(C)[C@@H]3COc4cc(C(F)(F)F)ccc43)cc12` [Ff-305, (S)-4-amino-7-fluoro-N,3-dimethyl-N-(6-(trifluoromethyl)-2,3-dihydrobenzofuran-3-yl)imidazo[1,5-a]quinoxaline-8-carboxamide] and `CN(C(=O)c1cc2c(cc1F)nc(N)c1cncn12)C1CCc2cc(C(F)(F)F)ccc21` (centres unmarked) [Ff-309, 4-amino-7-fluoro-N-methyl-N-(5-(trifluoromethyl)-2,3-dihydro-1H-inden-1-yl)imidazo[1,5-a]quinoxaline-8-carboxamide] cannot be ordered by CC50: < 100 nM for the first, < 100 nM for the second.

`Cn1ccc(N(Cc2ccc(C(F)(F)F)cn2)C(=O)c2cc3c(cc2F)nc(N)c2cncn23)n1` [Ff-306, 4-amino-7-fluoro-N-(1-methyl-1H-pyrazol-3-yl)-N-((5-(trifluoromethyl)pyridin-2-yl)methyl)imidazo[1,5-a]quinoxaline-8-carboxamide] and `Nc1nc2cc(F)c(C(=O)N(Cc3ccc(C(F)(F)F)cn3)c3cnn(C(F)F)c3)cc2n2cncc12` [Ff-311, 4-amino-N-(1-(difluoromethyl)-1H-pyrazol-4-yl)-7-fluoro-N-((5-(trifluoromethyl)pyridin-2-yl)methyl)imidazo[1,5-a]quinoxaline-8-carboxamide] cannot be ordered by CC50: < 100 nM for the first, < 100 nM for the second.

`CN(C(=O)c1cc2c(cc1F)nc(N)c1cncn12)[C@@H]1c2ccc(Br)cc2[C@@H]2C[C@H]12` [Ff-312, 4-amino-N-((1aR,6S,6aS)-3-bromo-1,1a,6,6a-tetrahydrocyclopropa[a]inden-6-yl)-7-fluoro-N-methylimidazo[1,5-a]quinoxaline-8-carboxamide] and `CN(C(=O)c1cc2c(cc1F)nc(N)c1cncn12)[C@H]1c2ccc(Br)cc2[C@H]2C[C@H]21` [Ff-313, 4-amino-N-((1aS,6R,6aR)-3-bromo-1,1a,6,6a-tetrahydrocyclopropa[a]inden-6-yl)-7-fluoro-N-methylimidazo[1,5-a]quinoxaline-8-carboxamide] fall in the same range of CC50: 100 to 1000 nM for the first, 100 to 1000 nM for the second.

`Cc1ncc2c(N)nc3cc(F)c(C(=O)N(C)[C@@H]4CCc5nc(C(F)(F)F)ccc54)cc3n12` [Ff-317, (R)-4-amino-7-fluoro-N,1-dimethyl-N-(2-(trifluoromethyl)-6,7-dihydro-5H-cyclopenta[b]pyridin-5-yl)imidazo[1,5-a]quinoxaline-8-carboxamide] and `CN(C(=O)c1cc2c(cc1F)nc(N)c1cncn12)[C@H]1c2ccc(Br)cc2[C@@H]2C[C@@H]21` [Ff-330, 4-amino-N-((1aR,6R,6aS)-3-bromo-1,1a,6,6a-tetrahydrocyclopropa[a]inden-6-yl)-7-fluoro-N-methylimidazo[1,5-a]quinoxaline-8-carboxamide] fall in the same range of CC50: 100 to 1000 nM for the first, 100 to 1000 nM for the second.

`Nc1nc2cc(F)c(C(=O)N3CCO[C@@H]4Cc5cc(C(F)(F)F)c(F)cc5[C@@H]43)cc2n2cncc12` [Ff-326, (4-amino-7-fluoroimidazo[1,5-a]quinoxalin-8-yl)((4aS,9aR)-6-fluoro-7-(trifluoromethyl)-2,3,9,9a-tetrahydroindeno[2,1-b][1,4]oxazin-4(4aH)-yl)methanone] and `CC1CN(C(=O)c2cc3c(cc2F)nc(N)c2cncn23)[C@H]2c3cc(F)ccc3C[C@H]2O1` (stereo partly drawn) [Ff-327, (4-amino-7-fluoroimidazo[1,5-a]quinoxalin-8-yl)((4aS,9aR)-6-fluoro-2-methyl-2,3,9,9a-tetrahydroindeno[2,1-b][1,4]oxazin-4(4aH)-yl)methanone] cannot be ordered by CC50: < 100 nM for the first, < 100 nM for the second.

In the case of `Nc1nc2cnc(C(=O)N3CCC[C@@H]4Oc5c(ccc(OC(F)(F)F)c5F)[C@@H]43)cc2n2cncc12` [Ff-336, (4-aminoimidazo[1,5-a]pyrido[3,4-e]pyrazin-8-yl)((4aS,9bS)-6-fluoro-7-(trifluoromethoxy)-3,4,4a,9b-tetrahydrobenzofuro[3,2-b]pyridin-1(2H)-yl)methanone], the CC50 is reported as < 100 nM.
